Source: article PMC7705649 (Scientific Reports, 2020)
Values joined by “and” are separate entries in the source; they are usually repeats but may differ in a detail not shown here. Equal values may be shown once. Read-outs that look alike come from different tables or passages of the source.

Experiments:
α1-acid-glycoprotein = test: Plasma protein binding on biomimetic AGP column; type: in vitro ADME; conditions: for PPBAGP (%): binding percentage to α1-acid-glycoprotein, biomimetic column, ± RSD (%)
human serum albumin [1] = target: T1, human serum albumin (Homo sapiens, UniProt P02768); test: Frontal analysis of FA on HSA column (HPAC); type: binding
T1 sequence (P02768 25-609): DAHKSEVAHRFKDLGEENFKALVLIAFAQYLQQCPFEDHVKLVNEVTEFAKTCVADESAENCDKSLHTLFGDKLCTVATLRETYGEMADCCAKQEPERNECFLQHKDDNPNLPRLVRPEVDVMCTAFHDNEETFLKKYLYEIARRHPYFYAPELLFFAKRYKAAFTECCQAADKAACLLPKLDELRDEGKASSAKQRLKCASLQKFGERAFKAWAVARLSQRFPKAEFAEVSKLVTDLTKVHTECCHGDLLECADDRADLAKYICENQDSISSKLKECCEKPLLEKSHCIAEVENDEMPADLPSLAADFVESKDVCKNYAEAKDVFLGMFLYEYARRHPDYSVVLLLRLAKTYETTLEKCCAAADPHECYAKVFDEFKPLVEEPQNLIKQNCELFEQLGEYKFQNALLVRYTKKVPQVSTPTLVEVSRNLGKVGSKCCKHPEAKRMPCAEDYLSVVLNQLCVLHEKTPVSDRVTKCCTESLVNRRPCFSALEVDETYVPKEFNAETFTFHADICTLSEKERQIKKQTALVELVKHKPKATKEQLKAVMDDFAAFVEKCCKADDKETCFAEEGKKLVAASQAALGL
Description: Frontal and zonal elution studies were carried out on HSA (Chiralpak-HSA, 50 × 4.6 mm, 5 μm particle size) biomimetic column obtained by ChromTech (Cedex, France). […] Injection volume was set at 10.0 µL and the measurements were carried out at 25.0 ± 0.1 °C.

[2] = RP-HPLC hydrophobicity determination (C18 column); type: physicochemical; conditions: Symmetry C18, phosphate-buffered saline/methanol, y-intercept of log k vs methanol fraction, 25 °C; ± 95% confidence interval
Description: All HPLC measurements were carried out on an Agilent 1100 series HPLC system (Agilent Technologies, Waldbronn, Germany) coupled with a diode array detector (DAD). System control, data collection and data processing were accomplished using ChemStation for LC 3D software by Agilent Technologies. RP-HPLC hydrophobicity determination was carried on Symmetry C18 reversed-phase column (150 × 4.6 mm, 3.5 µm particle size) obtained by Waters (Milford, MA, USA), with phosphate-buffered saline and methanol as mobile phase. The flow rate was set at 1.0 mL/min with the injection volume of 10.0 µL whilst the column temperature was maintained at 25.0 ± 0.1 °C. To obtain hydrophobicity, the log k values were calculated using retention times of investigated compounds (tR) and retention time of sodium nitrate as unretained compound (t0). […] At least five different concentrations of methanol in the mobile phase were applied for each standard substance and all measurements at each methanol fraction were performed in triplicates. […] Column equilibration time of 20 min was necessary after every change of mobile phase. Finally, log kw C18 value, describing hydrophobicity, was obtained by calculating the y-intercept of the regression line in a plot of log k vs. methanol fraction in the mobile phase.

human serum albumin [3] = target: T1, human serum albumin; conditions: binding percentage to human serum albumin, biomimetic column, ± RSD (%)
[4] = Affinity for immobilized phospholipids (IAM chromatography); type: physicochemical; conditions: IAM.PC.DD2 column, phosphate-buffered saline/methanol, y-intercept of log k vs methanol fraction; ± 95% confidence interval
Excerpt: The same HPLC conditions, mobile phases and calculation approaches were used for evaluation of IAM affinity, as in determining hydrophobicity with the RP-HPLC column.

SMILES | PPBAGP (%) (α1-acid-glycoprotein) | moles of binding sites (mL) (human serum albumin [1]; frontal analysis, HSA column, brackets = 95% confidence interval) | type of binding site on HSA (human serum albumin [1]; linear double-reciprocal plot, 1-20 µM FA) | log kw C18 [2] | PPBHSA (%) (human serum albumin [3]) | PPBHSA (%) (human serum albumin [3]; listed as folic acid) | log kw IAM [4] | affinity for AGP lower than for HSA (α1-acid-glycoprotein; difference PPBHSA minus PPBAGP) [%]
Nc1nc2ncc(CNc3ccc(C(=O)N[C@@H](CCC(=O)O)C(=O)O)cc3)nc2c(=O)[nH]1 [FA, folic acid] | 3.45 | 2.34 (± 1.16) × 10^–7 mol | single type of binding site | 0.99 and 0.99 ± 0.31 | 69.40 ± 0.53 | 69.40 |  | 
Nc1ccc(O)c(C(=O)O)c1 [MSZ, mesalazine] |  |  |  | 0.37 and 0.37 ± 0.19 | 61.44 ± 0.51 |  | 0.17 and 0.17 ± 0.02 | 
O=C(O)c1cc(/N=N/c2ccc(O)c(C(=O)O)c2)ccc1O [OSZ, olsalazine] |  |  |  | 3.25 ± 0.09 | 96.00 ± 0.03 |  | 1.69 ± 0.17 | 
O=C(O)c1cc(/N=N/c2ccc(S(=O)(=O)Nc3ccccn3)cc2)ccc1O [SASP, sulfasalazine] |  |  |  | 3.71 ± 0.24 |  |  | 2.77 ± 0.23 | 
O=C(O)CCNC(=O)c1ccc(/N=N/c2ccc(O)c(C(=O)O)c2)cc1 [BSZ, balsalazide] | 77.60 ± 0.58 |  |  | 3.01 ± 0.09 | 91.64 ± 0.04 |  | 1.20 ± 0.11 | 14
